Columns and labels:
[1] = test system: patients with cGVHD; experiment: Example 1: Global Severity Rating and participant self-reported symptom activity; format: in vivo, human
Protocol: Maximal Improvement from Baseline in Global Severity Rating (GSR) by Clinician-reported cGVHD Assessment. The GSR assessment was performed by asking the participants to rate their disease severity of cGVHD symptoms on a 0 to 10-point numeric rating scale, where score 0 indicated ‘not at all severe cGVHD symptoms’ and score 10 indicated ‘most severe cGVHD symptoms possible’. The response was defined using the scores from 9 organs: skin, eyes, mouth, esophagus, upper gastrointestinal (GI) track, lower GI tract, liver, lungs, and joints and fascia plus GSR. End of treatment (EOT) visit was performed within 3 days after the participant's last dose of study drug. Baseline value was defined as valid and last non-missing value obtained within 28 days prior to participant receiving first study medication. […] Analysis was performed on mITT population.
Number of Participants With Maximal Improvement From Baseline in Symptom Activity by cGVHD Activity Assessment Participant Self-Report. cGVHD symptom severity was self-reported by participants. Participants were asked to rate their disease symptom severity over the last week on the following questions: skin itching at its worst, moth dryness at its worst, mouth pain at its worst, mouth sensitivity at its worst, main compliant on eyes, symptom severity on eyes. The severity rating was done on a 0 to 10-point numeric rating scare, where score 0 indicated ‘not at all severe cGVHD symptoms’ and score 10 indicated ‘most severe cGVHD symptoms possible’. EOT visit was performed within 3 days after the participant's last dose of study drug. Baseline value was defined as valid and last non-missing value obtained within 28 days prior to participant receiving first study medication. […] Analysis was performed on mITT population.

[2] = Example 3: respiratory infections and overall survival; format: in vivo
Excerpt: The median age at enrollment was 42.5 years (range, 26-77). Allogeneic HCT was predominantly performed with myeloablative conditioning (n=44, 75%) and peripheral blood stem cells (n=54, 92%) from an HLA-matched donor (n=53, 90%). The median time from cGVHD diagnosis to enrollment was 22 months (range, 1-161). […] Most subjects (n=39, 66%) had at least 4 organs involved at enrollment. The median number of prior lines of systemic therapy was 3 (range, 1-6). Overall cGVHD response to the line of systemic therapy prior to enrollment was partial response (n=12, 20%), stable disease (n=25, 42%), progressive disease (n=12, 20%) or unknown (n=10, 17%). […] At the time of analysis, 16 subjects remained on therapy. […] Thirty-one subjects (53%) experienced at least 1 respiratory infection (any grade) while on treatment, with 11 subjects experiencing 32 episodes. These infections were categorized as upper respiratory infections (n=33) or pneumonia (n=13). […] With a median follow-up among survivors of 27 months (range, 1.8-55), the 2-year overall survival is 82% (95% CI: 70, 90).

CC(C)NC(=O)COc1cccc(-c2nc(Nc3ccc4[nH]ncc4c3)c3ccccc3n2)c1 [Belumosudil, 2-{3-[4-(1H-indazol-5-ylamino)-2-quinazolinyl]phenoxy}-N-(propan-2-yl) acetamide]
Maximal improvement from baseline in GSR of 0 ([1]; Cohort 1 200 mg QD): 5 (29%) participants | Maximal improvement from baseline in GSR of 1 ([1]; Cohort 1 200 mg QD): 0 (0%) participants | Maximal improvement from baseline in GSR of 3 ([1]; Cohort 1 200 mg QD): 0 (0%) participants | Maximal improvement from baseline in GSR of −1 ([1]; Cohort 1 200 mg QD): 1 (6%) participants | Maximal improvement from baseline in GSR of −2 ([1]; Cohort 1 200 mg QD): 2 (12%) participants | Maximal improvement from baseline in GSR of −4 ([1]; Cohort 1 200 mg QD): 2 (12%) participants | Maximal improvement from baseline in GSR of −5 ([1]; Cohort 1 200 mg QD): 2 (12%) participants | Maximal improvement from baseline in GSR of −6 ([1]; Cohort 1 200 mg QD): 0 (0%) participants | Maximal improvement from baseline in GSR of −7 ([1]; Cohort 1 200 mg QD): 0 (0%) participants | Maximal improvement in self-reported symptom activity of 0 ([1]; Cohort 1 200 mg QD): 1 participants | Maximal improvement in self-reported symptom activity of 1 ([1]; Cohort 1 200 mg QD): 0 participants | Maximal improvement in self-reported symptom activity of 2 ([1]; Cohort 1 200 mg QD): 0 participants | Maximal improvement in self-reported symptom activity of 4 ([1]; Cohort 1 200 mg QD): 1 participants | Maximal improvement in self-reported symptom activity of −1 ([1]; Cohort 1 200 mg QD): 2 participants | Maximal improvement in self-reported symptom activity of −2 ([1]; Cohort 1 200 mg QD): 2 participants | Maximal improvement in self-reported symptom activity of −3 ([1]; Cohort 1 200 mg QD): 2 participants | Maximal improvement in self-reported symptom activity of −4 ([1]; Cohort 1 200 mg QD): 2 participants | Maximal improvement in self-reported symptom activity of −5 ([1]; Cohort 1 200 mg QD): 2 participants | Maximal improvement in self-reported symptom activity of −6 ([1]; Cohort 1 200 mg QD): 0 participants | Maximal improvement in self-reported symptom activity of −7 ([1]; Cohort 1 200 mg QD): 3 participants | Maximal improvement in self-reported symptom activity of −8 ([1]; Cohort 1 200 mg QD): 0 participants | Maximal improvement from baseline in GSR of 0 ([1]; Cohort 2 200 mg BID): 4 (25%) participants | Maximal improvement from baseline in GSR of 1 ([1]; Cohort 2 200 mg BID): 1 (6%) participants | Maximal improvement from baseline in GSR of 3 ([1]; Cohort 2 200 mg BID): 1 (6%) participants | Maximal improvement from baseline in GSR of −1 ([1]; Cohort 2 200 mg BID): 2 (13%) participants | Maximal improvement from baseline in GSR of −2 ([1]; Cohort 2 200 mg BID): 4 (25%) participants | Maximal improvement from baseline in GSR of −3 ([1]; Cohort 2 200 mg BID): 0 (0%) participants | Maximal improvement from baseline in GSR of −4 ([1]; Cohort 2 200 mg BID): 0 (0%) participants | Maximal improvement from baseline in GSR of −5 ([1]; Cohort 2 200 mg BID): 2 (13%) participants | Maximal improvement from baseline in GSR of −6 ([1]; Cohort 2 200 mg BID): 2 (13%) participants | Maximal improvement from baseline in GSR of −7 ([1]; Cohort 2 200 mg BID): 0 (0%) participants | Maximal improvement in self-reported symptom activity of 0 ([1]; Cohort 2 200 mg BID): 1 participants | Maximal improvement in self-reported symptom activity of 1 ([1]; Cohort 2 200 mg BID): 0 participants | Maximal improvement in self-reported symptom activity of 2 ([1]; Cohort 2 200 mg BID): 1 participants | Maximal improvement in self-reported symptom activity of 4 ([1]; Cohort 2 200 mg BID): 0 participants | Maximal improvement in self-reported symptom activity of −1 ([1]; Cohort 2 200 mg BID): 2 participants | Maximal improvement in self-reported symptom activity of −2 ([1]; Cohort 2 200 mg BID): 3 participants | Maximal improvement in self-reported symptom activity of −3 ([1]; Cohort 2 200 mg BID): 2 participants | Maximal improvement in self-reported symptom activity of −4 ([1]; Cohort 2 200 mg BID): 2 participants | Maximal improvement in self-reported symptom activity of −5 ([1]; Cohort 2 200 mg BID): 0 participants | Maximal improvement in self-reported symptom activity of −6 ([1]; Cohort 2 200 mg BID): 1 participants | Maximal improvement in self-reported symptom activity of −7 ([1]; Cohort 2 200 mg BID): 2 participants | Maximal improvement in self-reported symptom activity of −8 ([1]; Cohort 2 200 mg BID): 0 participants | Maximal improvement from baseline in GSR of 0 ([1]; Cohort 3 400 mg QD): 3 (14%) participants | Maximal improvement from baseline in GSR of 1 ([1]; Cohort 3 400 mg QD): 1 (5%) participants | Maximal improvement from baseline in GSR of 3 ([1]; Cohort 3 400 mg QD): 0 (0%) participants | Maximal improvement from baseline in GSR of −1 ([1]; Cohort 3 400 mg QD): 4 (19%) participants | Maximal improvement from baseline in GSR of −2 ([1]; Cohort 3 400 mg QD): 4 (19%) participants | Maximal improvement from baseline in GSR of −3 ([1]; Cohort 3 400 mg QD): 1 (5%) participants | Maximal improvement from baseline in GSR of −4 ([1]; Cohort 3 400 mg QD): 3 (14%) participants | Maximal improvement from baseline in GSR of −5 ([1]; Cohort 3 400 mg QD): 0 (0%) participants | Maximal improvement from baseline in GSR of −6 ([1]; Cohort 3 400 mg QD): 0 (0%) participants | Maximal improvement from baseline in GSR of −7 ([1]; Cohort 3 400 mg QD): 2 (10%) participants | Maximal improvement in self-reported symptom activity of 0 ([1]; Cohort 3 400 mg QD): 0 participants | Maximal improvement in self-reported symptom activity of 1 ([1]; Cohort 3 400 mg QD): 1 participants | Maximal improvement in self-reported symptom activity of 2 ([1]; Cohort 3 400 mg QD): 2 participants | Maximal improvement in self-reported symptom activity of 4 ([1]; Cohort 3 400 mg QD): 0 participants | Maximal improvement in self-reported symptom activity of −1 ([1]; Cohort 3 400 mg QD): 2 participants | Maximal improvement in self-reported symptom activity of −2 ([1]; Cohort 3 400 mg QD): 2 participants | Maximal improvement in self-reported symptom activity of −3 ([1]; Cohort 3 400 mg QD): 2 participants | Maximal improvement in self-reported symptom activity of −4 ([1]; Cohort 3 400 mg QD): 1 participants | Maximal improvement in self-reported symptom activity of −5 ([1]; Cohort 3 400 mg QD): 2 participants | Maximal improvement in self-reported symptom activity of −6 ([1]; Cohort 3 400 mg QD): 4 participants | Maximal improvement in self-reported symptom activity of −7 ([1]; Cohort 3 400 mg QD): 0 participants | Maximal improvement in self-reported symptom activity of −8 ([1]; Cohort 3 400 mg QD): 1 participants | Subjects with at least 1 respiratory infection (any grade) on treatment ([2]; 59 BOS subjects): 53% | 2-year overall survival ([2]; 95% CI: 70, 90): 82%

Reference: patent publication US20250255867A1 (Kadmon Corporation, LLC, priority 2022, published 2025)
